Assay results taken from paper PMC6410080 (Viruses, 2019).
Structures can show the parent of a compound that is named as a salt. Where two headings read alike, the source gives them in different places.

Tests used:
SFV = assay: microbe, parasite or virus in culture; assay type: cell-based, Semliki Forest virus; settings: Semliki Forest virus; for inhibition at 10 µM: M-HeLa, read-out: % inhibition (SFV screen); for IC50: HeLa Kyoto
DENV-2 = DENV-2 infection assay / secondary screen (E protein staining); assay type: cell-based, dengue virus serotype 2; settings: Dengue virus, DENV2, Huh-7, 24 h, read-out: % inhibition (DENV-2 screen)
in vitro [1] = settings: human
in vitro [2] = settings: human; remark: listed apart in the source
HeLa Kyoto cells = settings: human

Q: Which results are given for `Nc1ncnc2c1ncn2[C@@H]1O[C@H](COP(=O)(O)O)[C@@H](O)[C@H]1O` [Adenosine 5'-monophosphate monohydrate]?
A: inhibition at 10 µM (SFV; 7 h): 73.4%; inhibition at 10 µM (DENV-2): -177%; viability at 10 µM (in vitro [1]; % viability (SFV screen)): 86.8%; viability at 10 µM (in vitro [2]): 105%

Q: Which results are given for `CSc1ccc2c(c1)C(N1CCN(C)CC1)Cc1ccccc1S2` (stereo not shown) [Methiothepin mesylate]?
A: inhibition at 10 µM (SFV; 7 h): 84%; viability at 10 µM (in vitro [1]; % viability (SFV screen)): 66.6%; viability at 10 µM (in vitro [2]): 0.1%

Q: For `O=C1NCCN1CCN1CCC(c2cn(-c3ccc(F)cc3)c3ccc(Cl)cc23)CC1` [Sertindole], which inhibition at 10 µM (SFV; 7 h) is on record?
A: 67.2%

Q: What about the viability at 10 µM (in vitro [1]; % viability (SFV screen)) of the same compound?
A: 105%

Q: And the viability at 10 µM (in vitro [2])?
A: 26.6%

Q: What does the source list for `CN1CCN(CCCN2c3ccccc3Sc3ccc(Cl)cc32)CC1` [Prochloperazine, Prochlorperazine dimaleate]?
A: inhibition at 10 µM (SFV; 7 h): 73.3%; inhibition at 10 µM (DENV-2): 98.9%; TC50 SFV (7h) (HeLa Kyoto cells): 22700 µM; viability at 10 µM (in vitro [1]; % viability (SFV screen)): 84%; viability at 10 µM (in vitro [2]): 46.7%

Q: What does the source list for `[H]/N=C(\N/C(=N/[H])NCCCCCCNC(=N)NC(=N)Nc1ccc(Cl)cc1)Nc1ccc(Cl)cc1` [Chlorhexidine]?
A: inhibition at 10 µM (SFV; 7 h): 96.6%; viability at 10 µM (in vitro [1]; % viability (SFV screen)): 96.2%; viability at 10 µM (in vitro [2]): 16.6%

Q: Which inhibition at 10 µM (SFV; 7 h) does the source give for `OC(c1cc(C(F)(F)F)nc2c(C(F)(F)F)cccc12)C1CCCCN1` (stereo not shown) [Mefloquine hydrochloride] here?
A: 94.3%

Q: What about the inhibition at 10 µM (DENV-2) of the same compound?
A: -22.1%

Q: What about the viability at 10 µM (in vitro [1]; % viability (SFV screen)) of the same compound?
A: 72.7%

Q: And the viability at 10 µM (in vitro [2])?
A: 7.25%

Q: For `CCCCN(CCCC)CCC(O)c1cc2c(Cl)cc(Cl)cc2c2cc(C(F)(F)F)ccc12` (stereo not shown) [Halofantrine, Halofantrine hydrochloride], which IC50 (SFV; 7 h, read-out: IC50 SFV) is on record?
A: 116 µM

Q: What about the IC50 (SFV; read-out: IC50 SFV (7 h)) of the same compound?
A: > 100 µM

Q: What about the inhibition at 10 µM (SFV; 7 h) of the same compound?
A: 102%

Q: And the inhibition at 10 µM (DENV-2)?
A: 83.6%

Q: And the “TC50 SFV (7h)” value (HeLa Kyoto cells)?
A: 290400 µM

Q: And the viability at 10 µM (in vitro [1]; % viability (SFV screen))?
A: 96.9%

Q: And the viability at 10 µM (in vitro [2])?
A: 89.4%

Q: For `C1CCC(C(CC2CCCCN2)C2CCCCC2)CC1` (stereo not shown) [Perhexiline maleate], which inhibition at 10 µM (SFV; 7 h) is on record?
A: 101%

Q: And the viability at 10 µM (in vitro [1]; % viability (SFV screen))?
A: 62.9%

Q: What about the viability at 10 µM (in vitro [2]) of the same compound?
A: 1.42%

Q: For `Clc1cc(Cl)c(OCC#CI)cc1Cl` [Haloprogin], which inhibition at 10 µM (SFV; 7 h) is on record?
A: 99.8%

Q: And the inhibition at 10 µM (DENV-2)?
A: 1.64%

Q: What about the viability at 10 µM (in vitro [1]; % viability (SFV screen)) of the same compound?
A: 75.4%

Q: And the viability at 10 µM (in vitro [2])?
A: 104%

Q: With `CCOC(=O)C1=C(C)NC(C)=C(C(=O)OCC)C1c1ccccc1/C=C/C(=O)OC(C)(C)C` [Lacidipine] as the compound, how does the IC50 (SFV; 7 h, read-out: IC50 SFV) read?
A: 23.7 µM

Q: And the inhibition at 10 µM (SFV; 7 h)?
A: 79.8%

Q: And the inhibition at 10 µM (DENV-2)?
A: 98%

Q: What about the “TC50 SFV (7h)” value (HeLa Kyoto cells; 7 h) of the same compound?
A: 27700 µM

Q: What about the viability at 10 µM (in vitro [1]; % viability (SFV screen)) of the same compound?
A: 80.6%

Q: What about the viability at 10 µM (in vitro [2]) of the same compound?
A: 75.7%

Q: Which inhibition at 10 µM (SFV; 7 h) does the source give for `C[C@@H]1C[C@@H]([C@H](O)CC2CC(=O)NC(=O)C2)C(=O)[C@@H](C)C1` [Cycloheximide] here?
A: 99.9%

Q: What about the inhibition at 10 µM (DENV-2) of the same compound?
A: 64.5%

Q: What about the viability at 10 µM (in vitro [1]) of the same compound?
A: 94%

Q: What about the viability at 24 h, 10 µM (in vitro [2]) of the same compound?
A: 60.1%

Q: Which inhibition at 10 µM (SFV; 7 h) does the source give for `CN1CCN(CCCN2c3ccccc3Sc3ccc(C(F)(F)F)cc32)CC1` [Trifluoperazine dihydrochloride] here?
A: 96.5%

Q: What about the viability at 10 µM (in vitro [1]; % viability (SFV screen)) of the same compound?
A: 93.9%

Q: And the viability at 10 µM (in vitro [2])?
A: 0.13%

Q: With `C=C(NC(=O)C(=C)NC(=O)c1csc(C2=N[C@@H]3c4csc(n4)[C@H]4NC(=O)c5csc(n5)[C@H]([C@](C)(O)[C@@H](C)O)NC(=O)[C@H]5CSC(=N5)/C(=C/C)NC(=O)[C@H]([C@@H](C)O)NC(=O)c5csc(n5)[C@]3(CC2)NC(=O)[C@H](C)NC(=O)C(=C)NC(=O)[C@H](C)NC(=O)[C@H]([C@@H](C)CC)N[C@@H]2C=Cc3c([C@H](C)O)cc(nc3[C@H]2O)C(=O)O[C@@H]4C)n1)C(N)=O` [Thiostrepton] as the compound, how does the inhibition at 10 µM (SFV; 7 h) read?
A: 65.9%

Q: What about the viability at 10 µM (in vitro [1]; % viability (SFV screen)) of the same compound?
A: 88.5%

Q: And the viability at 10 µM (in vitro [2])?
A: 18.7%

Q: Which inhibition at 10 µM (SFV; 7 h) does the source give for `Nc1c2ccccc2nc2ccccc12` [Aminacrine] here?
A: 89.2%

Q: What about the viability at 10 µM (in vitro [1]; % viability (SFV screen)) of the same compound?
A: 87.4%

Q: And the viability at 10 µM (in vitro [2])?
A: 23.3%
